# Molecular target: T1, human PI 3-kinase p120γ (Homo sapiens, UniProt P48736)
# T1 construct: purchased Millipore Corporation
# Experiment: PI 3-kinase p120γ enzyme activity inhibition test
# Format: biochemical
# Conditions: ATP 10.0 μM, PIP2-PS 5.0 μM, 30° C., 2 hours; read-out: IC50 value
# Experimental: Using human PI 3-kinase p120γ (manufactured by Millipore Corporation) and a mixed micellized product (hereinafter abbreviated as PIP2-PS) of the substrate thereof, L-a-Phosphatidyl-D-myo-inositol-4,5-bisphosphate (product of Calbiochem, hereinafter abbreviated as PIP2), and L-a-Phosphatidyl-L-Serine (manufactured by Sigma, hereinafter abbreviated as PS), the compound of the present invention was examined for the inhibitory action on PI3 Kinase p120γ enzyme activity (Km=8.9 μM for ATP, Km=4.0 μM for PIP2-PS).
# PIP2-PS was prepared by mixing 500 μM of PIP2 and 2.5 nM of PS and sonicating the mixture for 40 minutes while ice cooling to cause micellization. ATP (final concentration 10.0 μM), [γ-^33P] ATP (final concentration 10 μCi/ml), PIP2-PS (final concentration 5.0 μM) and DMSO solutions of the test compound in different concentrations (compound final concentration 1.0×10^−5 to 2.4×10^−12 M, DMSO final concentration 0.1%) were added to PI 3-kinase p120γ, stirred and reacted at 30° C. for 2 hours. Using Phospholipid-Coated FlashPlate Microplates, 96-Well and Phospholipid FlashPlate Coating Buffer (both manufactured by PerkinElmer Co., Ltd.), PIP2-PS and phosphorylated PIP2-PS were allowed to be adsorbed to the well wall of the plate and collected. The well was washed twice with PBS (Phosphate-Buffered Saline) and dried. The radioactivity was measured using Top Count NXT (manufactured by PerkinElmer Co., Ltd.), whereby the phosphorylated amount (a) of PIP2-PS at the time of compound addition was calculated.
# The same procedure was carried out in the absence of the test compound and the phosphorylated amount (b) of PIP2-PS was calculated. Further, the same procedure was carried out in the absence of both of the substrate and the test compound, and the PIP2-PS phosphorylated amount (c) of the background was calculated.
# The PI3 Kinase p120γ enzyme activity suppression rate of the compound was calculated by the following formula. Suppression rate (%)=[1−(a−c)/(b−c)]×100
# More specifically, using the suppression rate by the test compound of different concentrations, the IC50 value was calculated according to the dose-dependent inhibition curve analyzed by a data analysis software Origin (Lightstone Corp.) and used as the inhibitory activity index.
# T1 sequence (P48736 whole entry): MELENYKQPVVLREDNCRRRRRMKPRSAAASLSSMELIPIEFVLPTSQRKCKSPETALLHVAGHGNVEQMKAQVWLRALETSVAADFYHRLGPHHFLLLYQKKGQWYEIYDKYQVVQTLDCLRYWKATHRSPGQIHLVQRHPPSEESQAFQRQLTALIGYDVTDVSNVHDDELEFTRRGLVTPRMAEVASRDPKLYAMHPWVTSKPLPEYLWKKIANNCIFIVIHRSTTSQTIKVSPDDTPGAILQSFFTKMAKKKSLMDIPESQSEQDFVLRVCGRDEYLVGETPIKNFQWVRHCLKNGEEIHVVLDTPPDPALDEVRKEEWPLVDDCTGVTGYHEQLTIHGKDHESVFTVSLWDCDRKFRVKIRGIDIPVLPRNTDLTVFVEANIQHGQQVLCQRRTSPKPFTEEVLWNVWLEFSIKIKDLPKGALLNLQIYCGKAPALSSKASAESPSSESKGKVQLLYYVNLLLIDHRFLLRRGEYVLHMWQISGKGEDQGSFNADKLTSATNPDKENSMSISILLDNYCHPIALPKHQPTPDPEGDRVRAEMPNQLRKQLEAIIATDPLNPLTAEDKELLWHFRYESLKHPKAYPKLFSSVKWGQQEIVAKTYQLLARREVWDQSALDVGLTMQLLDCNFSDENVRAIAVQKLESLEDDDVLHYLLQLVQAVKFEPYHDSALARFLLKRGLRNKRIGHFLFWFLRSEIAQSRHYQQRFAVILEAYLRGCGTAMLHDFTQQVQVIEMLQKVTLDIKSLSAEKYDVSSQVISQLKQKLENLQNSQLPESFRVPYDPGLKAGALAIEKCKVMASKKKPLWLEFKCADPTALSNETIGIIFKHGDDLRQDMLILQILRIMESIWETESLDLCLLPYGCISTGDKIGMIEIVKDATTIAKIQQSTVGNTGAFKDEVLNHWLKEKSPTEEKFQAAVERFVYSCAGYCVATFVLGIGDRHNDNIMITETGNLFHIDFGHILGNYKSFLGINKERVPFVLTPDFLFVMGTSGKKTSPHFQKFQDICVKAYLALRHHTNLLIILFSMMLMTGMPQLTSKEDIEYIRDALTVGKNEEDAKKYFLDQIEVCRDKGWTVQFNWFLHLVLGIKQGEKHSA
row,IC50 [nM],SMILES
1,88,CC(=O)Nc1nc(C)c(-c2nc(CCC(C)C)no2)s1 [Example 82]
2,428,CC(=O)Nc1nc(C)c(-c2nc(CC(O)CC(F)(F)F)no2)s1 (centres unmarked) [Example 67]
3,7230,CC(=O)Nc1nc(C)c(-c2nc(-c3ccc(OCc4cccnc4)nc3)no2)s1 [Example 5]

# Same assay, conditions: ATP 10.0 μM, PIP2-PS 5.0 μM, 30° C., 2 hours; read-out: PI3Kγ (IC50 value class)
row,IC50 [nM],SMILES
1,100 to 500,CNC(=O)c1noc(-c2sc(NC(C)=O)nc2C)n1 [Example 78]
2,< 100,COCC(C)(C)Cc1noc(-c2sc(NC(C)=O)nc2C)n1 [Example 51]
3,100 to 500,CC(=O)Nc1nc(C)c(-c2nc(CCc3cccnc3)no2)s1 [Example 12]
4,100 to 500,CC(=O)Nc1nc(C)c(-c2nc(-c3cc[nH]c(=O)c3)no2)s1 [Example 113]
5,100 to 500,Cc1nc(NC(=O)CCNC(=O)OC(C)(C)C)sc1-c1nc(CC(C)(C)CO)no1 [Example 163]
6,< 100,CC(=O)Nc1nc(C)c(-c2nc(CCC(C)C)no2)s1 [Example 82]
7,500 to 10000,Cc1nc(NC(=O)N2CCC(O)CC2)sc1-c1nc(-c2cccnc2)no1 [Example 137]
8,< 100,Cc1nc(NC(=O)NCCC(=O)NC(C)(C)C)sc1-c1nc(-c2cccnc2)no1 [Example 132]
9,100 to 500,CC(=O)Nc1nc(C)c(-c2nc(CC(C)O)no2)s1 (centres unmarked) [Example 38]
10,100 to 500,"CC(=O)Nc1nc(C)c(-c2nc(N3CCOCC3)no2)s1 [Example 87, N-{4-methyl-5-[3-(morpholin-4-yl)-1,2,4-oxadiazol-5-yl]-1,3-thiazol-2-yl}acetamide]"
11,< 100,COCC(=O)Nc1nc(C)c(-c2nc(-c3cccc(CO)c3)no2)s1 [Example 173]
12,< 100,Cc1nc(N)sc1-c1nc(CC(C)(C)CO)no1 [Example 156]
13,< 100,Cc1nc(NC(=O)NCCCNC(C)(C)C)sc1-c1nc(-c2cccnc2)no1 [Example 148]
14,< 100,COCCNC(=O)CCNC(=O)Nc1nc(C)c(-c2nc(CC(F)(F)F)no2)s1 [Example 167]
15,< 100,CC(=O)Nc1nc(C)c(-c2nc(CC(C)(C)C)no2)s1 [Example 68]
16,< 100,CC(=O)Nc1nc(C)c(-c2nc(N3CCCC(O)C3)no2)s1 (centres unmarked) [Example 93]
17,< 100,CC(=O)Nc1nc(C)c(-c2nc(-c3cccc(CO)c3)no2)s1 [Example 21]
18,100 to 500,CC(=O)Nc1nc(C)c(-c2nc(CC3(CO)COC3)no2)s1 [Example 57]
19,< 100,Cc1nc(NC(=O)NCC(C)O)sc1-c1nc(-c2cncnc2)no1 (centres unmarked) [Example 176]
20,100 to 500,CC(=O)Nc1nc(C)c(-c2nc(CC(O)CC(F)(F)F)no2)s1 (centres unmarked) [Example 67]
21,< 100,Cc1nc(NC(=O)NCCC(=O)N(C)C)sc1-c1nc(-c2cccnc2)no1 [Example 131]
22,500 to 10000,CC(=O)Nc1nc(C)c(-c2nc(CN3CCOCC3)no2)s1 [Example 75]
23,< 100,Cc1nc(NC(=O)NCCC(=O)N2CCNCC2)sc1-c1nc(CC(F)(F)F)no1 [Example 169]
24,100 to 500,CC(=O)Nc1nc(C)c(-c2nc(CC(C)(C)S(=O)(=O)NC(C)(C)C)no2)s1 [Example 94]
25,< 100,Cc1nc(NC(=O)NCC(C)O)sc1-c1nc(-c2cccc(O)c2)no1 (centres unmarked) [Example 174]

row,IC50 [nM],SMILES
1,< 100,CC(=O)Nc1nc(C)c(-c2nc(C3CC3(C)C)no2)s1 (centres unmarked) [Example 101]
2,< 100,CC(=O)Nc1nc(C)c(-c2nc(-c3ccc(CO)cc3)no2)s1 [Example 25]
3,100 to 500,CC(=O)Nc1nc(C)c(-c2nc(C(N)=O)no2)s1 [Example 70]
4,< 100,CC(=O)Nc1nc(C)c(-c2nc(CC3CC3)no2)s1 [Example 80]
5,< 100,CC(=O)Nc1nc(C)c(-c2nc(CC(C)(C)C(C)O)no2)s1 (centres unmarked) [Example 85]
6,< 100,Cc1nc(NC(=O)NCC(C)O)sc1-c1nc(-c2cccnc2)no1 (centres unmarked) [Example 175]
7,100 to 500,Cc1nc(NC(=O)NCCC(=O)N2CCN(C(=O)OC(C)(C)C)CC2)sc1-c1nc(CC(F)(F)F)no1 [Example 168]
8,500 to 10000,CC(=O)Nc1nc(C)c(-c2nc(-c3ccc(OCc4cccnc4)nc3)no2)s1 [Example 5]
9,100 to 500,CC(=O)Nc1nc(C)c(-c2nc(CC(C)(C)S(N)(=O)=O)no2)s1 [Example 107]
10,< 100,Cc1nc(NC(=O)NCCC(=O)NC(C)(CO)CO)sc1-c1nc(CC(F)(F)F)no1 [Example 164]
11,< 100,CCOC(=O)Nc1nc(C)c(-c2nc(CC(C)(C)CO)no2)s1 [Example 158]
12,< 100,CC(=O)Nc1nc(C)c(-c2nc(C3CCOCC3)no2)s1 [Example 54]
13,< 100,"CC(=O)Nc1nc(C)c(-c2nc(-c3cccnc3)no2)s1 [Example 1, N-{4-methyl-5-[3-(pyridin-3-yl)-1,2,4-oxadiazol-5-yl]-1,3-thiazol-2-yl}acetamide]"
14,< 100,Cc1nc(NC(=O)NCCOC(=O)C(C)(C)C)sc1-c1nc(-c2cccnc2)no1 [Example 135]
15,< 100,Cc1nc(NC(=O)NCCCN2CCCC2=O)sc1-c1nc(CC(C)(C)CO)no1 [Example 159]
16,100 to 500,CC(=O)Nc1nc(C)c(-c2nc(CCCO)no2)s1 [Example 33]
17,< 100,CCOC(=O)CC(C)NC(=O)Nc1nc(C)c(-c2nc(-c3cccnc3)no2)s1 (centres unmarked) [Example 143]
18,500 to 10000,CC(=O)Nc1nc(C)c(-c2nc(CCCCOC(C)=O)no2)s1 [Example 59]
19,< 100,CC(=O)Nc1nc(C)c(-c2nc(CC(C)(C)CF)no2)s1 [Example 95]
20,< 100,Cc1nc(NC(=O)NCCC(=O)N2CCC(O)CC2)sc1-c1nc(-c2cccnc2)no1 [Example 150]
21,< 100,Cc1nc(NC(=O)NCCS(=O)(=O)NC(C)(C)C)sc1-c1nc(-c2cccnc2)no1 [Example 133]
22,100 to 500,CC(=O)CCc1noc(-c2sc(NC(C)=O)nc2C)n1 [Example 66]
23,< 100,CC(=O)Nc1nc(C)c(-c2nc(C[C@H](C)CO)no2)s1 [Example 62]
24,100 to 500,CC(=O)Nc1nc(C)c(-c2nc(C(=O)C(C)(C)C)no2)s1 [Example 88]
25,< 100,Cc1nc(NC(=O)NCCCC(=O)OC(C)(C)C)sc1-c1nc(-c2cccnc2)no1 [Example 125]

row,IC50 [nM],SMILES
1,100 to 500,CC(=O)Nc1nc(C)c(-c2nc(CCO)no2)s1 [Example 13]
2,< 100,CC(=O)Nc1nc(C)c(-c2nc(-c3ccc(C)nc3)no2)s1 [Example 17]
3,< 100,Cc1nc(NC(=O)NCCCOC(C)(C)C)sc1-c1nc(-c2cccnc2)no1 [Example 130]
4,< 100,Cc1nc(NC(=O)NCCc2ccccn2)sc1-c1nc(-c2cccnc2)no1 [Example 171]
5,100 to 500,CC(=O)Nc1nc(C)c(-c2nc(CC(C)(C)COS(C)(=O)=O)no2)s1 [Example 76]
6,< 100,"CC(=O)Nc1nc(C)c(-c2nc(CC(C)(C)CO)no2)s1 [Example 31, N-{5-[3-(3-hydroxy-2,2-dimethylpropyl)-1,2,4-oxadiazol-5-yl]-4-methyl-1,3-thiazol-2-yl}acetamide]"
7,500 to 10000,CCOC(C)(OCC)c1noc(-c2sc(NC(C)=O)nc2C)n1 [Example 58]
8,< 100,Cc1nc(NC(=O)NCCC(=O)OC(C)C)sc1-c1nc(-c2cccnc2)no1 [Example 140]
9,< 100,COCCCC(=O)Nc1nc(C)c(-c2nc(-c3cccnc3)no2)s1 [Example 128]
10,< 100,CC(=O)Nc1nc(C)c(-c2nc(CC(C)(C)C(C)(C)O)no2)s1 [Example 106]
11,100 to 500,CC(=O)Nc1nc(C)c(-c2nc(CCCCO)no2)s1 [Example 61]
12,< 100,CC(=O)Nc1nc(C)c(-c2nc(C3CCCOC3)no2)s1 (centres unmarked) [Example 112]
13,500 to 10000,CNCc1noc(-c2sc(NC(C)=O)nc2C)n1 [Example 79]
14,500 to 10000,CC(=O)Nc1nc(C)c(-c2nc(-c3ccncc3)no2)s1 [Example 11]
15,< 100,CC(=O)Nc1nc(C)c(-c2nc(C(C)(C)O)no2)s1 [Example 64]
16,< 100,Cc1nc(NC(=O)NCCC(=O)OC(C)(C)C)sc1-c1nc(CC(C)(C)CO)no1 [Example 157]
17,< 100,CC(=O)Nc1nc(C)c(-c2nc(/C=C(\C)CO)no2)s1 [Example 98]
18,500 to 10000,CC(=O)Nc1nc(C)c(-c2nc(CC(C)(C)CN)no2)s1 [Example 43]
19,< 100,CC(=O)Nc1nc(C)c(-c2nc(C3CCOC3)no2)s1 (centres unmarked) [Example 63]
20,< 100,Cc1nc(NC(=O)NCCC(=O)NC(C)(CO)CO)sc1-c1nc(-c2cccnc2)no1 [Example 152]
21,< 100,CCOC(=O)CCCC(=O)Nc1nc(C)c(-c2nc(-c3cccnc3)no2)s1 [Example 118]
22,< 100,CCn1cnc(CCNC(=O)Nc2nc(C)c(-c3nc(-c4cccnc4)no3)s2)c1 [Example 172]
23,< 100,CC(=O)Nc1nc(C)c(-c2nc(C(C)(C)CCO)no2)s1 [Example 73]
24,< 100,Cc1nc(NC(=O)NCCC(=O)N2CCOCC2)sc1-c1nc(-c2cccnc2)no1 [Example 145]

# Reference: patent US8637557B2, “Aminothiazole derivative” (Taisho Pharmaceutical Co., Ltd, priority 2009, dated 2014)
